Test results: ChEMBL document CHEMBL4665719, “Development of SKI-349, a dual-targeted inhibitor of sphingosine kinase and microtubule polymerization” (Bioorg Med Chem Lett, 2020)
Activity calls are given as the source filed them. The rule behind the calls is not given here.

Assays:
[1] = Effect on hematopoiesis in sub-lethal irradiated C57BL/6J mouse xenografted with […] MLL-AF9 cells assessed as CD45.1+/CD34 cells in bone marrow at 5 mg/kg measured after 6 weeks by flow cytometry analysis (reference value: 93 %); type: ADME, organism-based; settings: in vivo, 1008 h
[2] = molecular target: Cyclin-dependent kinase 1 (Homo sapiens) (UniProt P06493); assay: Activation of CDK1 in human HL-60 cells assessed as activation of caspase 7 at 300 nM after 24 hrs in presence of Ro-3306 by Western blot analysis; type: cell-based
[3] = molecular target: T1, Sphingosine kinase 2 (Homo sapiens) (UniProt Q9NRA0); assay: Inhibition of SphK2 (unknown origin) catalytic activity at 2 to 5 uM; settings: dose microM 2-5
T1 sequence (whole entry): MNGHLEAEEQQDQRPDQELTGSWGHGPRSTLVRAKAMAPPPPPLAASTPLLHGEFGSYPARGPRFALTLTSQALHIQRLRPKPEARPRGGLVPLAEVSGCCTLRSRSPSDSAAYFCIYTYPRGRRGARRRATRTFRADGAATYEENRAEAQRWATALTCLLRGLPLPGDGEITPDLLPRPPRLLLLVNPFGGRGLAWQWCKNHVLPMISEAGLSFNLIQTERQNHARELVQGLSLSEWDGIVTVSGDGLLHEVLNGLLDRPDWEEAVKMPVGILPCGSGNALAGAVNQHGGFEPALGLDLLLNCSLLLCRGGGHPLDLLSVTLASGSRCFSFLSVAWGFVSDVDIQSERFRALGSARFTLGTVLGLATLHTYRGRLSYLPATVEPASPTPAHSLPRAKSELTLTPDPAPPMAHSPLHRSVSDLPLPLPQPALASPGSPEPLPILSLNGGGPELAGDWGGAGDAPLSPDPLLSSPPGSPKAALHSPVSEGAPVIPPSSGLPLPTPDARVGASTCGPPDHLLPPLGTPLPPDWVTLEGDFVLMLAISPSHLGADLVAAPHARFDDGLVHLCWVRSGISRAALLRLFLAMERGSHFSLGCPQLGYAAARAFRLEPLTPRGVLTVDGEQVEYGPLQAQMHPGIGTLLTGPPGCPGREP

[4] = Toxicity in sub-lethal irradiated C57BL/6J mouse xenografted with […] MLL-AF9 cells assessed as platelet level at 5 mg/kg measured after 2 weeks (reference value: 687 +/- 53 10^3/ml); type: organism-based; settings: in vivo, 336 h
[5] = molecular target: T2, Sphingosine kinase 1/2 (Homo sapiens) (UniProt Q9NRA0+Q9NYA1); assay: Inhibition of SPHK1/SPHK2 in human HL-60 cells assessed as C16:0 ceramide level assessed per 10^6 cells at 500 nM after 24 hrs by LC-ESI/MS analysis (reference value: 33.5 +/- 4.1 pmol); type: cell-based
[6] = molecular target: Sphingosine kinase 1 (Homo sapiens, UniProt Q9NYA1); assay: Binding affinity to SphK1 in HEK293 cells assessed as direct target engagement incubated for 24 hrs followed by thermal denaturation at 61 degreeC by ITDRF-CETSA assay; type: cell-based
[7] = molecular target: Cyclin-dependent kinase 1 (Homo sapiens) (UniProt P06493); assay: Activation of CDK1 in human HL60/VCR cells assessed as activation of caspase 7 at 300 nM after 24 hrs by Western blot analysis; type: cell-based; settings: filed as activator
[8] = molecular target: T2, Sphingosine kinase 1/2 (Homo sapiens); assay: Inhibition of SPHK1/SPHK2 in human HL-60 cells assessed as sphingosine level assessed per 10^6 cells at 500 nM after 24 hrs by LC-ESI/MS analysis (reference value: 18.3 +/- 3.5 pmol); type: cell-based
[9] = Antitumor activity against human MLL-AF9 xenografted in sub-lethal irradiated C57BL/6J mouse assessed as increase in mouse survival at 1 mg/kg administered every day relative to control; type: functional; settings: MLL-AF9, light or radiation study
[10] = molecular target: Cyclin-dependent kinase 1 (Homo sapiens) (UniProt P06493); assay: Activation of CDK1 in human HL-60 cells assessed as activation of caspase 7 at 300 nM after 24 hrs by Western blot analysis; type: cell-based; settings: filed as activator
[11] = Toxicity in sub-lethal irradiated C57BL/6J mouse xenografted with […] MLL-AF9 cells assessed as RBC level at 1 mg/kg measured after 2 weeks (reference value: 9.8 +/- 0.3 10^6/ml); type: organism-based; settings: in vivo, 336 h
[12] = molecular target: Tyrosine-protein kinase JAK1 (Homo sapiens) (UniProt P23458); assay: Inhibition of wild-type human partial length JAK1 JH2 pseudokinase domain (R537 to D855 residues) expressed in mammalian expression system assessed as residual activity at 1 uM by Kinomescan method relative to control
[13] = molecular target: T2, Sphingosine kinase 1/2 (Homo sapiens); assay: Inhibition of SPHK1/SPHK2 in human HL-60 cells assessed as C18:0 ceramide level assessed per 10^6 cells at 500 nM after 24 hrs by LC-ESI/MS analysis (reference value: 1.6 +/- 0.2 pmol); type: cell-based
[14] = system: MLL-AF9; assay: Antitumor activity against human MLL-AF9 xenografted in sub-lethal irradiated C57BL/6J mouse assessed as increase in mouse survival at 1 to 5 mg/kg administered every day; type: functional, organism-based; settings: dose mg/kg 1-5
[15] = molecular target: Non-receptor tyrosine-protein kinase TYK2 (Homo sapiens) (UniProt P29597); assay: Inhibition of wild-type human partial length TYK2 JH2 pseudokinase domain (G556 to D888 residues) expressed in mammalian expression system assessed as residual activity at 1 uM by Kinomescan method relative to control
[16] = system: HL-60; assay: Cytotoxicity against human HL-60 cells assessed as reduction in cell viability after 48 hrs by MTT assay; type: functional, cell-based; settings: HL-60, 48 h
[17] = Cytotoxicity against human HL60/VCR cells assessed as reduction in cell viability after 48 hrs by MTT assay; type: functional, cell-based
[18] = molecular target: Cyclin-dependent kinase 1 (Homo sapiens) (UniProt P06493); assay: Activation of CDK1 in human HL-60 cells assessed as induction of Bcl2 phosphorylation at Ser70 residue at 300 nM after 24 hrs by Western blot analysis; type: cell-based; settings: filed as activator
[19] = molecular target: T2, Sphingosine kinase 1/2 (Homo sapiens); assay: Inhibition of SPHK1/SPHK2 in human HL-60 cells assessed as sphingosine-1-phosphate level assessed per 10^6 cells at 500 nM after 24 hrs by LC-ESI/MS analysis (reference value: 3.1 +/- 0.3 pmol); type: cell-based
[20] = Effect on hematopoiesis in sub-lethal irradiated C57BL/6J mouse xenografted with […] MLL-AF9 cells assessed as CD45.1+/CD34 cells in bone marrow at 2.5 mg/kg measured after 6 weeks by flow cytometry analysis (reference value: 93 %); type: ADME, organism-based; settings: in vivo, 1008 h
[21] = molecular target: T2, Sphingosine kinase 1/2 (Homo sapiens); assay: Inhibition of SPHK1/SPHK2 in human HL-60 cells assessed as induction of apoptosis by measuring spindle assembly checkpoint arrest at 1 uM after 16 hrs by Western blot analysis; type: cell-based
[22] = molecular target: Cyclin-dependent kinase 1 (Homo sapiens) (UniProt P06493); assay: Activation of CDK1 in human HL-60 cells assessed as induction of Bcl2 phosphorylation at Ser70 residue at 300 nM after 24 hrs in presence of Ro-3306 by Western blot analysis; type: cell-based

T2 sequence (Q9NYA1 whole entry, looked up, one chain of several): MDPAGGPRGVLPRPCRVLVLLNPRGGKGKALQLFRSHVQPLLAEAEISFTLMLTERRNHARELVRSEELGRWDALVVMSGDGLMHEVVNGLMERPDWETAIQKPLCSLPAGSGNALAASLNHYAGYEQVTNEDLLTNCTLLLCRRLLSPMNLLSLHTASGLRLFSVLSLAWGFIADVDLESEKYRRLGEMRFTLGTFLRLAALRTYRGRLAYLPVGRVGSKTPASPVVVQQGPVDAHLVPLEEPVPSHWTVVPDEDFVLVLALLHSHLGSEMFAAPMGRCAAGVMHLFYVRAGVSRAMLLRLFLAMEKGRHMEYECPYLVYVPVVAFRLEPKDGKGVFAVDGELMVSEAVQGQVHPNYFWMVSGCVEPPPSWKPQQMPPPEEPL
Sequence of Cyclin-dependent kinase 1 (Homo sapiens) (P06493 whole entry, looked up): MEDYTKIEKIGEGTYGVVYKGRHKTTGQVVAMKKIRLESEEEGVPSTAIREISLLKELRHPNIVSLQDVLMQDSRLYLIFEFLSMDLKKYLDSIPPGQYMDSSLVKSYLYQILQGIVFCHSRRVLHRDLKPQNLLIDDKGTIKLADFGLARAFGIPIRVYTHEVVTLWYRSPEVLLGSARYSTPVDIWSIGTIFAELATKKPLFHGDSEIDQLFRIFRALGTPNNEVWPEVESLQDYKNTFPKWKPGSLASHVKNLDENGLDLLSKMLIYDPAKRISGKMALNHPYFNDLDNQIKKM
Sequence of Sphingosine kinase 1 (Q9NYA1 whole entry): as the sequence (Q9NYA1 whole entry, looked up, one chain of several) above
Sequence of Non-receptor tyrosine-protein kinase TYK2 (Homo sapiens) (P29597 whole entry, the tested form may be a part): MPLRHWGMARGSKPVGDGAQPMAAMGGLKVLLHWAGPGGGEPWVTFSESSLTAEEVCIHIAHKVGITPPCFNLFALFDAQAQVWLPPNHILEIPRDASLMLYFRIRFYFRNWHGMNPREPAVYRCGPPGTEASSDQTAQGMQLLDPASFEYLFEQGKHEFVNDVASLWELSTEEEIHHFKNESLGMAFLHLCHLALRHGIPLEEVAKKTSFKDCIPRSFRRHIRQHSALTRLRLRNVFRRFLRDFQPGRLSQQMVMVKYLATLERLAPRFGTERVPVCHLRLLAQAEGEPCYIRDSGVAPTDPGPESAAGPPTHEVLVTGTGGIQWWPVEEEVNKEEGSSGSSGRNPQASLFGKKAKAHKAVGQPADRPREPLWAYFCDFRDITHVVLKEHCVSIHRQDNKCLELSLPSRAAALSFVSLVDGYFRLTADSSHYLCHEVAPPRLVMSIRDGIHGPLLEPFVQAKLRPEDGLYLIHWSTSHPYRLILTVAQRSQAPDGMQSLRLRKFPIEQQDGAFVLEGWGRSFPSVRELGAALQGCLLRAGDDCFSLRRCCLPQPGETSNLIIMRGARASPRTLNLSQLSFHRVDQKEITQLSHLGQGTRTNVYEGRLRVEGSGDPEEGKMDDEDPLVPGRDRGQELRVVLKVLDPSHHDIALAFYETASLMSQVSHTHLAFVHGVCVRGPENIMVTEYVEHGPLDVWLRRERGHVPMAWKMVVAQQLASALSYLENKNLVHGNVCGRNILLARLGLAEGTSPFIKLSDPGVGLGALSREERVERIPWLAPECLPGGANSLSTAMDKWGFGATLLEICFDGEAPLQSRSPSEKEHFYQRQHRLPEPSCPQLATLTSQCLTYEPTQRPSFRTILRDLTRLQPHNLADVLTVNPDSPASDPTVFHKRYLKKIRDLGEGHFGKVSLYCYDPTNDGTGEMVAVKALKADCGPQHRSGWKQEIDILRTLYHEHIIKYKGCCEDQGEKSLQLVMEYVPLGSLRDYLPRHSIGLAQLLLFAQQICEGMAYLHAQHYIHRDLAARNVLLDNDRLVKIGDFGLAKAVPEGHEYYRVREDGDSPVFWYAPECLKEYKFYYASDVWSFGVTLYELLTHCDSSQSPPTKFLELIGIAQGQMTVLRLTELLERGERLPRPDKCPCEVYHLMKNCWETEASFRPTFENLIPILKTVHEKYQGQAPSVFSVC
Sequence of Tyrosine-protein kinase JAK1 (Homo sapiens) (P23458 whole entry, the tested form may be a part): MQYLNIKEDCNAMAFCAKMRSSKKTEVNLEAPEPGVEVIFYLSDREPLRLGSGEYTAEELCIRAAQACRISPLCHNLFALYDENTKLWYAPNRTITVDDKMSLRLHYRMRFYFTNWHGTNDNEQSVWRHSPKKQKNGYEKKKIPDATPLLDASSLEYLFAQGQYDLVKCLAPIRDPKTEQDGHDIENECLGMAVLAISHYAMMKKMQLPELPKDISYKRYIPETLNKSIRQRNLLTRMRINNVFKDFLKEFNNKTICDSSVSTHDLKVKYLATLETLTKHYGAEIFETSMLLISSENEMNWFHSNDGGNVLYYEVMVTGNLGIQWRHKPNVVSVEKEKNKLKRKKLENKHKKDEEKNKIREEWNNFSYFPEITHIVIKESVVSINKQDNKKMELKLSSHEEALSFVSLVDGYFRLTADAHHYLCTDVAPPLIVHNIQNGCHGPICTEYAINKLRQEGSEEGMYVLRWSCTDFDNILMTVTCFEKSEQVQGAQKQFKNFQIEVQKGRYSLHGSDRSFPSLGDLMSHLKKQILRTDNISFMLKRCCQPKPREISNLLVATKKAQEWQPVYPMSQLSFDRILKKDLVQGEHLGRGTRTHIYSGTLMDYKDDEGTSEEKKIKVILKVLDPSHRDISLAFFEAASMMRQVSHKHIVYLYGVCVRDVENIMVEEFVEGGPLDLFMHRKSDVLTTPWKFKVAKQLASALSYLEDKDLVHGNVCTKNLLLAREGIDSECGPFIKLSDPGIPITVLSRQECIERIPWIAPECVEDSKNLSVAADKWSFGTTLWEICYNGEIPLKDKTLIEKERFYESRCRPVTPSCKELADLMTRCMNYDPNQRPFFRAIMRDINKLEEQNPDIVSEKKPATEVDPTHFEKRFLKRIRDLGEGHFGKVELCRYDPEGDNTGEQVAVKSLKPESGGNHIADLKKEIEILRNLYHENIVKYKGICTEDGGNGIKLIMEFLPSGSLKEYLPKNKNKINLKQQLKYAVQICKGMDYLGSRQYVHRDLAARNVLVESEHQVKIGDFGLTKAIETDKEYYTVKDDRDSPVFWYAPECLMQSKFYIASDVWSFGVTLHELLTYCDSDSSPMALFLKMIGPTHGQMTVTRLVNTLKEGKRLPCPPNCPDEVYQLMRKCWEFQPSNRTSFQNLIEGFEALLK

COc1ccc(Nc2nc(N)c(C(=O)c3ccc(OC)c(OC)c3)s2)cc1
Activity [1]: 7% | Activity [2]: inactive | inhibition [3]: inactive | Activity [4]: 1089 10^3/ml | Activity [5]: 87 pmol | IC50 [6]: 60 nM | Activity [7]: Active | Activity [8]: 27 pmol | survival at 1 mg/kg [9]: 100% | Activity [10]: Active | Activity [11]: 9.2 10^6/ml | Activity [12]: 5.4% | Activity [13]: 4.7 pmol | Activity [14]: Active | Activity [15]: 14% | IC50 [16]: 22 nM | IC50 [17]: 23 nM | Activity [18]: Active | Activity [19]: 2.3 pmol | Activity [20]: 7% | Activity [21]: Active | Activity [22]: inactive
